Experimental data published in paper PMC9600394, “Efficient Synthesis with Green Chemistry Approach of Novel Pharmacophores of Imidazole-Based Hybrids for Tumor Treatment: Mechanistic Insights from In Situ to In Silico” (Cancers, 2022).
Like-named read-outs stand apart in the source and are kept apart here.

What was measured:
hCA-IX [1] = target: T1, hCA-IX (Homo sapiens, UniProt Q16790); test: In vitro inhibition of human CA-IX (p-nitrophenyl acetate, 96-well plate); format: biochemical; conditions: for IC50 / hCA-IX IC50 ± SEM: purified enzyme, substrate p-nitrophenyl acetate, 25 °C, µM from b1; for IC50: unit inferred, read-out: hCA-IX IC50 ± SEM; for hCA-IX IC50 ± SEM: unit not given; for Selectivity / specificity for hCA-IX (in words): hCA-IX versus hCA-II
hCA-II [2] = target: T2, hCA-II (Homo sapiens, UniProt P00918); test: In vitro inhibition of human CA-II (p-nitrophenyl acetate, 96-well plate); format: biochemical; conditions: for Inhibitory activity for hCA-II in words: compared to acetazolamide; for hCA-II IC50 ± SEM: unit not given
[3] = MTT assay in normal breast cell line MCF-10A; conditions: human
Procedure: (§1) This cell line is ER, PR, and E-cadherin negative, and it lacks the growth factor receptor HER2. […] The normal human breast cell line (MCF-10A) was used as a control in the study. Cells were cultured in DMEM supplemented with 10% FBS and 1% antibiotics (100 U/mL penicillin). […] After 48 h of incubation, 20 μL of MTT solution (5 mg/mL) was pipetted into each well and incubated for another 4 h. The medium was later discarded, and the formazan precipitate was dissolved in DMSO. The absorbance of the mixtures was determined by a microplate reader at 570 nm. All the experiments were performed in triplicate, and the cytotoxicity was expressed as a percentage of cell viability and compared with untreated control cells [33]. % Viability=Absorbance of sample/Absorbance of control×100
(§2) The dose–response and IC50 values were calculated by IBM SPSS Statistics 26 software.
(§3) Simultaneously, the normal human breast epithelial cell line (MCF-10A) was used as a positive control. The MTT [3-(4,5-dimethylthiazol-2-yl)-2,5-diphenyltetrazolium bromide] assay was used to determine the decrease in cancer cell viability induced by the synthesized hybrids.

MCF-10A = test: MTT assay in normal breast cell line MCF-10A; conditions: for inhibition at 100 µM / IC50: Homo sapiens, MCF-10A, 48 h; for inhibition at 100 µM: read-out: MCF-10A %Inhibition; for IC50: read-out: MCF-10A IC50
Procedure: as §1, §2, §3

hCA-II [4] = target: T2, hCA-II; test: Enzyme kinetic (mechanistic) studies on hCA-II; conditions: for Type of Inhibition (hCA-II): Lineweaver–Burk / Dixon plots; for Vmaxapp (hCA-II): maximum velocity of the enzyme in the presence of inhibitors
Procedure: In vitro inhibition of human CA (CA-II, and CA-IX) was performed in 96-well plate. Each well of the 96-well plate comprised 20 µL of the test compound (0.5 mM), 20 µL of the purified enzyme (0.1 mg/mL), 140 µL of the assay buffer (HEPES–tris, 20 mM), and 20 µL of the substrate (p-Nitrophenyl acetate; prepared in methanol), making a final volume of 200 µL. The assay procedure started with the incubation of the test compound, desired enzyme, and 140 µL of buffer for 15 min. […] All the in vitro testing results, e.g., percent inhibition, and the IC50 values were analyzed by EZ-Fit, which is a curve-fitting enzyme kinetics program (Perrella Scientific Inc., Amherst, MA, USA). All kinetic graphs were plotted by GraFit program (Horley, UK). Different parameters and their values, such as the values of intercepts, slopes, correlation coefficients, and their standard error means (SEMs), were calculated by the nonlinear regression analysis using the same program (GraFit program).
Certain parameters of the assay were changed in order to determine the mode of inhibition of compounds against specific enzymes.

MDA-MB-231 = test: MTT assay in breast cancer cell line MDA-MB-231; conditions: for inhibition at 100 µM: read-out: MDA-MB-231 %Inhibition; for viability at 100 µM: read-out: MDA-MB-231 %Viability
Procedure: as §1, §2, §3

hCA-IX [5] = target: T1, hCA-IX; test: Enzyme kinetic (mechanistic) studies on hCA-IX; format: biochemical; conditions: for Type of Inhibition (hCA-IX): Lineweaver–Burk / Dixon plots; for Kmapp (hCA-IX): Michaelis–Menten constant in the presence of inhibitors; for Vmaxapp (hCA-IX): maximum velocity of the enzyme in the presence of inhibitors
[6] = Homo sapiens, MDA-MB-231, 48 h, read-out: MDA-MB-231 IC50, 48 h, MTT
[7] = purified enzyme, substrate p-nitrophenyl acetate, 25 °C, µM from b1
[8] = read-out: MDA-MB-231 IC50, 48 h, MTT

| SMILES | IC50 (hCA-IX [1]) [µM] | Inhibitory activity for hCA-II in words (hCA-II [2]) | melting point | inhibition at 100 µM (MCF-10A) [%] | IC50 (MCF-10A) [µM] | inhibition at 100 µM (MDA-MB-231; Homo sapiens, MDA-MB-231, 48 h) [%] | viability at 100 µM (MDA-MB-231; Homo sapiens, MDA-MB-231, 48 h) [%] | IC50 (MDA-MB-231; [6]) [µM] | IC50 (hCA-II [2]) [µM] | Ki (hCA-IX [5]) [µM] | Type of Inhibition (hCA-IX) (hCA-IX [5]) | Kmapp (hCA-IX) (hCA-IX [5]) | Vmaxapp (hCA-IX) (hCA-IX [5]) | viability at 48 h, 100 µM [3] [%] | hCA-II IC50 ± SEM (hCA-II [2]; [7]) | Selectivity / specificity for hCA-IX (in words) (hCA-IX [1]) | IC50 (MDA-MB-231; [8]) [µM] | also measured |
| --- | --- | --- | --- | --- | --- | --- | --- | --- | --- | --- | --- | --- | --- | --- | --- | --- | --- | --- |
| Cc1ncc(C2=C(O)CCCC2=O)n1CCO [Compound 1, 3-hydroxy-2-(1-(2-hydroxyethyl)-2-methyl-1H-imidazol-5-yl) cyclohex-2-en-1-one] | 23 ± 0.5 | potent inhibitory activity | 186 to 190 °C | 13.2 | > 100 | 51.4 | 48.6 | 96 |  |  |  |  |  |  |  |  |  | Inhibitory activity for hCA-IX in words (hCA-IX [1]; compared to the standard acetazolamide): comparatively weak activity; IC50 (hCA-II [2]; purified enzyme, substrate p-nitrophenyl acetate, 25 °C, unit inferred, µM from b1, read-out: hCA-II IC50 ± SEM): 11.6 ± 0.2 µM; viability at 48 h, 100 µM ([3]; MCF-10A normal breast epithelial cells): 86.8%; Ki (hCA-II [4]): 9.14 ± 0.08 µM; Type of Inhibition (hCA-II) (hCA-II [4]): competitive inhibition; Vmaxapp (hCA-II) (hCA-II [4]): 19.32 |
| Cc1ncc(-c2c(O)[nH]c(=O)[nH]c2=O)[nH]1 [Compound 3, 6-hydroxy-5-(2-methyl-1H-imidazol-5-yl) pyrimidine-2,4(1H,3H)-dione] | 10.9 ± 0.8 | weak activity | 215 °C (dec.) | 14.3 | > 100 | 61.2 | 38.8 | 76.1 | 30.7 ± 3.4 | 8.01 ± 0.01 | competitive inhibition | 0.38 | 23.01 | 85.7 |  |  |  |  |
| Cc1ncc(-c2c(O)[nH]c(=S)[nH]c2=O)[nH]1 [Compound 4, 6-hydroxy-5-(2-methyl-1H-imidazol-5-yl)-2-thioxo-2,3-dihydropyrimidin-4(1H)-one] | 17.1 ± 0.6 | weak activity |  | 17.9 | > 100 | 60.5 | 39.5 | 75.7 | 31.1 ± 1.3 | 15.02 ± 0.04 | competitive inhibition | 0.43 | 23.01 | 82.1 |  |  |  |  |
| Cc1ncc(-c2c(O)[nH]c(=O)[nH]c2=O)n1CCOC(=O)c1ccccc1 [Compound 5, 2-(5-(6-hydroxy-2,4-dioxo-1,2,3,4-tetrahydropyrimidin-5-yl)-2-methyl-1H-imidazol-1-yl) ethyl benzoate] |  |  |  | 20.5 | > 100 | 82.1 | 17.9 | 53.6 |  |  |  |  |  | 79.5 | Inactive |  |  | hCA-IX IC50 ± SEM (hCA-IX [1]): Inactive; Toxicity to normal breast cells (MCF-10A) in words (MCF-10A; MTT): no toxicity; Anticancer/cytotoxic activity in MDA-MB-231 in words (MDA-MB-231; MTT): excellent anticancer/cytotoxic activity |
| Cc1ncc(-c2c(O)n(C)c(=O)n(C)c2=O)[nH]1 [Compound 6, 6-hydroxy-1,3-dimethyl-5-(2-methyl-1H-imidazol-5-yl) pyrimidine-2,4(1H,3H)-dione] |  |  |  | 13.2 | > 100 | 58.4 | 41.6 | 79.4 |  |  |  |  |  | 86.8 | Inactive |  |  | hCA-IX IC50 ± SEM (hCA-IX [1]): Inactive |
| Cc1ncc(-c2c(O)[nH]c(=S)[nH]c2=O)n1CCOC(=O)c1ccccc1 [Compound 7, 2-(5-(6-hydroxy-4-oxo-2-thioxo-1,2,3,4-tetrahydropyrimidin-5-yl)-2-methyl-1H-imidazol-1-yl) ethyl benzoate] | 9.6 ± 0.2 |  | 225 to 230 °C | 13.2 | > 100 | 69.2 | 30.8 | 64 |  | 7.32 ± 0.02 | competitive inhibition |  | 23.01 | 86.8 | Inactive | selective inhibitors of hCA-IX | 64 | Inhibitory activity for hCA-IX in words (hCA-IX [1]): strong inhibitory activity |
| Cc1ncc(-c2c(O)[nH]c(=O)[nH]c2=O)n1CCO [Compound 8, 6-hydroxy-5-(1-(2-hydroxyethyl)-2-methyl-1H-imidazol-5-yl) pyrimidine-2,4 (1H, 3H)-dione] | 32.2 ± 1 |  |  | 15.5 | > 100 | 77.8 | 22.2 | 55.6 |  |  |  |  |  | 84.5 | Inactive | selective inhibitors of hCA-IX |  | Inhibitory activity for hCA-IX in words (hCA-IX [1]): comparatively weak activity |
| Cc1ncc(-c2c(O)[nH]c(=S)[nH]c2=O)n1CCO [Compound 9, 6-hydroxy-5-(1-(2-hydroxyethyl)-2-methyl-1H-imidazol-5-yl)-2-thioxo-2,3-dihydropyrimidin-4(1H)-one] | 19.9 ± 0.8 | weak activity |  | 13.2 | > 100 | 73.5 | 26.5 | 58.6 | 27.5 ± 1.3 | 17.02 ± 0.02 | competitive inhibition | 0.47 | 23.01 | 84.5 |  |  | 58.6 |  |
| Cc1ncc(-c2c(O)n(C)c(=O)n(C)c2=O)n1CCO [Compound 10, 6-hydroxy-5-(1-(2-hydroxyethyl)-2-methyl-1H-imidazol-5-yl)-1,3-dimethylpyrimidine-2,4(1H,3H)-dione] | 14.8 ± 0.1 |  | 163 to 165 °C | 15.1 | > 100 | 75.5 | 24.5 | 60.9 |  | 13.24 ± 0.03 | competitive inhibition | 0.40 | 23.01 | 84.9 | Inactive | selective inhibitors of hCA-IX |  |  |
| Cc1ncc(-c2c(O)n(C)c(=O)n(C)c2=O)n1CCOC(=O)c1ccccc1 [Compound 11, 2-(5-(6-hydroxy-1,3-dimethyl-2,4-dioxo-1,2,3,4-tetrahydropyrimidin-5-yl)-2-methyl-1H-imidazol-1-yl) ethyl benzoate] | 11.9 ± 0.3 | potent inhibitory activity | 180 to 185 °C | 12.1 | > 100 | 68.2 | 31.8 | 63.1 | 15.3 ± 0.3 | 8.32 ± 0.05 | competitive inhibition | 0.42 | 23.01 | 87.9 |  | selective inhibitors of hCA-IX | 63.1 | Ki (hCA-II [4]): 12.58 ± 0.04 µM; Type of Inhibition (hCA-II) (hCA-II [4]): competitive inhibition; Kmapp (hCA-II) (hCA-II [4]; Michaelis–Menten constant in the presence of inhibitors): 0.14; Vmaxapp (hCA-II) (hCA-II [4]): 19.32 |
